Source: PubChem BioAssay (NCI)
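Interpolation was linear, between the two tested concentrations surrounding the appropriate level; five concentrations were tested over 48 hours in 96-well plates. GI50 = concentration required for 50% inhibition of growth. TGI marks complete inhibition of growth.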

Columns and labels:
Test in all cases: NCI-60 cell line screen, 48 h
[1] = system: COLO 205 colon
[2] = system: HL-60(TB) leukemia
[3] = system: NCI-H226 lung
[4] = system: SK-OV-3 ovarian
[5] = system: HT29 colon
[6] = system: NCI-H23 lung
[7] = system: SK-MEL-2 melanoma
[8] = system: HOP-92 NSCLC
[9] = system: CCRF-CEM leukemia
[10] = system: A549 NSCLC

## COc1ccc(CC2NCCc3cc(OC)c(OC)cc32)cc1 (stereo not given)
[1]
  TGI: > 100 µM
[2]
  TGI: > 100 µM
[3]
  TGI: > 100 µM
[4]
  TGI: > 100 µM
[5]
  TGI: > 100 µM
[6]
  TGI: > 100 µM
[7]
  TGI: > 100 µM
[8]
  TGI: > 100 µM
[9]
  TGI: > 100 µM
[10]
  TGI: > 100 µM

## O=C1c2cccc3cccc(c23)C(=O)N1CCCCN1CCN(CCCCOc2ccc(-c3nc4ccc(N5CCOCC5)cc4[nH]3)cc2)CC1
[1]
  GI50: > 100 µM
  TGI: > 100 µM
[2]
  GI50: 4.62 µM
  TGI: > 100 µM
[3]
  GI50: > 100 µM
  TGI: > 100 µM
[4]
  GI50: > 100 µM
  TGI: > 100 µM
[5]
  GI50: > 100 µM
  TGI: > 100 µM
[6]
  GI50: > 100 µM
  TGI: > 100 µM
[7]
  GI50: > 100 µM
  TGI: > 100 µM
[8]
  GI50: > 100 µM
  TGI: > 100 µM
[9]
  GI50: > 100 µM
  TGI: > 100 µM
[10]
  GI50: > 100 µM
  TGI: > 100 µM

## CC1CC(=O)C(CC(=O)O)C1C(C(=O)C(=O)Nc1c(C#N)cccc1[N+](=O)[O-])[N+](=O)[O-] (stereo not given)
[1]
  TGI: > 100 µM
[2]
  TGI: > 100 µM
[3]
  TGI: > 100 µM
[4]
  TGI: > 100 µM
[5]
  TGI: > 100 µM
[6]
  TGI: > 100 µM
[7]
  TGI: > 100 µM
[8]
  TGI: > 100 µM
[9]
  TGI: > 100 µM
[10]
  TGI: > 100 µM
